“And” between values parts separate entries of the source, which are not always exact repeats. Equal values may be shown once.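 The compound was tested at five concentrations on cells cultured in 96-well plates, with a 48-hour exposure period. GI50: concentration for 50% inhibition of growth. The concentration for full growth arrest is given as TGI.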
Columns and labels:
Assay in all cases: DTP human tumour cell line panel, 48 h
HT29 colon = system: HT29 colon
KM12 colon = system: KM12 colon
MDA-MB-231 breast = system: MDA-MB-231 breast
MOLT-4 leukemia = system: MOLT-4 leukemia
NCI/ADR-RES ovarian = system: NCI/ADR-RES ovarian
OVCAR-4 ovarian = system: OVCAR-4 ovarian
PC-3 prostate = system: PC-3 prostate
SK-OV-3 ovarian = system: SK-OV-3 ovarian
SN12C renal = system: SN12C renal
SR leukemia = system: SR leukemia

Row | Structure (SMILES) | GI50 (HT29 colon) | TGI (HT29 colon) | GI50 (KM12 colon) | TGI (KM12 colon) | GI50 (MDA-MB-231 breast) | TGI (MDA-MB-231 breast) | GI50 (MOLT-4 leukemia) | TGI (MOLT-4 leukemia) | GI50 (NCI/ADR-RES ovarian) | TGI (NCI/ADR-RES ovarian) | GI50 (OVCAR-4 ovarian) | TGI (OVCAR-4 ovarian) | GI50 (PC-3 prostate) | TGI (PC-3 prostate) | GI50 (SK-OV-3 ovarian) | TGI (SK-OV-3 ovarian) | GI50 (SN12C renal) | TGI (SN12C renal) | GI50 (SR leukemia) | TGI (SR leukemia)
1 | Cc1cc(I)cc(CN(CCCN(C)C)C(C)C)c1O | 9.23 µM | 21.2 µM | 18 µM | 36 µM | 18.1 µM | 43.6 µM | 16.3 µM | 34.7 µM | 23.1 µM | 61.6 µM | 37.2 µM | > 100 µM | 14 µM | 30.4 µM | 15.1 µM | 30.9 µM | 37.8 µM | > 100 µM | 15.9 µM | 35.8 µM
2 | O=C1NC(=NC(CO)Cc2ccccc2)S/C1=C\c1ccc2ncccc2c1 (stereo not given) | 16.2 µM and 4.74 µM | > 25 µM | 12.4 µM and 2.25 µM | > 25 µM | > 25 µM and 10.3 µM | > 25 µM | 12.2 µM and 7.45 µM | > 25 µM and 18.7 µM | > 25 µM | > 25 µM | > 21.4 µM and 4.17 µM | > 25 µM | > 25 µM and 3.9 µM | > 25 µM | 14.1 µM and 3.74 µM | > 25 µM and 21.2 µM | 14.9 µM and 3.46 µM | > 25 µM | 6.94 µM and 0.888 µM | > 22.6 µM and 5.23 µM
3 | CC1(COc2ccc3c(c2)ncn3-c2ccc3cccc(N4CCC(N)CC4)c3n2)COC1 | 2.92 µM and 3.29 µM | 7.99 µM and > 10 µM | 0.0519 µM and 0.118 µM | 5.74 µM and > 10 µM | 2.55 µM and 1.88 µM | 8.69 µM and 7.63 µM | 1.56 µM and 1.51 µM | 5.71 µM and 5.97 µM | 7.04 µM and > 10 µM | 20.6 µM and > 10 µM | 2.89 µM and 3.53 µM | 8.15 µM and > 10 µM | 5.38 µM and 3.54 µM | 21.6 µM and > 10 µM | 15.5 µM and > 10 µM | 29.2 µM and > 10 µM | 0.945 µM and 1.12 µM | 15.3 µM and > 10 µM | 0.769 µM and 0.347 µM | 4.7 µM and 2.4 µM
4 | CC(C)c1cc2c(cc1S(=O)(=O)O)[C@@]1(C)CCC[C@@](C)(C(=O)O)C1CC2 (stereo not given in full) | – | > 100 µM | – | > 100 µM | – | > 100 µM | – | > 100 µM | – | > 100 µM | – | > 100 µM | – | > 100 µM | – | > 100 µM | – | > 100 µM | – | > 100 µM
5 | CC(=O)CC(OC(C)=O)C1=CCC2C(CC1C)OC(=O)C2C (stereo not given) | – | > 100 µM | – | > 100 µM | – | > 100 µM | – | > 100 µM | – | > 100 µM | – | > 100 µM | – | > 100 µM | – | > 100 µM | – | > 100 µM | – | > 100 µM
6 | N#CC(C#N)=C/C=C(\Sc1nc2ccccc2s1)c1ccc(Cl)cc1 | 3.27 µM | > 31.7 µM | 8.9 µM | 33.6 µM | 5.87 µM | 22.3 µM | 0.565 µM | – | 7.19 µM | 22.6 µM | 16 µM | 47.5 µM | 6.67 µM | 27.7 µM | 11.9 µM | > 42.2 µM | 7.88 µM | > 53.1 µM | 0.844 µM | –
7 | CCC(=C/[C@H](C)C/C=C/C(C)=C/[C@@H](C)C(=O)[C@@H](C)[C@H](O)[C@@H](C)CC)/C=C/[C@H]1OC(=O)C=C[C@@H]1C | < 0.01 µM | 1.15 µM | < 0.01 µM | 1.15 µM | < 0.01 µM | 2.18 µM | < 0.01 µM | 0.114 µM | < 0.01 µM | 4.31 µM | < 0.01 µM | 3.67 µM | < 0.01 µM | 3.04 µM | < 0.035 µM | 13.4 µM | < 0.01 µM | 1.27 µM | < 0.01 µM | –
8 | C/C(=C\CBr)CCC(Br)C(C)(C)Br (stereo not given) | – | > 100 µM | – | > 100 µM | – | > 100 µM | – | > 100 µM | – | > 100 µM | – | > 100 µM | – | > 100 µM | – | > 100 µM | – | > 100 µM | – | > 100 µM
9 | COCCOc1ccc(-c2nc3ccc(-c4nc5ccc(N6CCN(C)CC6)cc5[nH]4)cc3[nH]2)cc1 | 0.579 µM | > 100 µM | 2.58 µM | 14.3 µM | 2.25 µM | 6.49 µM | 2.81 µM | > 100 µM | > 100 µM | > 100 µM | 0.313 µM | 3 µM | 2.19 µM | 24.5 µM | 2.7 µM | 15.6 µM | 1.42 µM | 11.8 µM | 0.5 µM | 21.9 µM
10 | O=[N+]([O-])c1ccc(Cl)cc1N/N=C/c1ccnc2ccccc12 | – | > 100 µM | – | > 100 µM | – | > 100 µM | – | > 100 µM | – | > 100 µM | – | > 100 µM | – | > 100 µM | – | > 100 µM | – | > 100 µM | – | > 100 µM
11 | CCCCCCCCCCn1cc[n+](C)c1 | 2.23 µM | 19.2 µM | 1.57 µM | 5.75 µM | 2.73 µM | 16.9 µM | 2.9 µM | 29 µM | 47.4 µM | > 100 µM | 1.31 µM | > 61.4 µM | 1.03 µM | 6.73 µM | 2.62 µM | 20.9 µM | 2.54 µM | 9.71 µM | 0.163 µM | 4.16 µM
12 | CN1CC[C@@H](NC(=O)Nc2ccc(C#N)cc2)C[C@@H]1c1nc2ccccc2[nH]1 | > 74.2 µM | > 100 µM | > 100 µM | > 100 µM | > 100 µM | > 100 µM | 55.6 µM | > 100 µM | > 49.8 µM | > 86.6 µM | 100 µM | > 100 µM | > 100 µM | > 100 µM | > 100 µM | > 100 µM | > 78.9 µM | > 100 µM | 48.2 µM | > 100 µM
13 | COc1cccc(C(=O)NC(c2ccc(C)cc2)c2cc(Cl)c3cccnc3c2O)c1 (stereo not given) | 0.623 µM | 19.8 µM | 0.545 µM | 16.8 µM | 0.612 µM | 15.4 µM | 0.622 µM | 8.05 µM | 0.33 µM | > 88.6 µM | 0.298 µM | 10.2 µM | 0.423 µM | 16.2 µM | 0.682 µM | 11.3 µM | 0.661 µM | 13.2 µM | 0.538 µM | 5.66 µM
14 | COc1cc(-c2ccc3cc(OC)c(OC)c(OC)c3c2)cc(OC)c1OC | – | – | 5.93 µM | > 100 µM | 8.91 µM | > 100 µM | > 100 µM | > 100 µM | 7.91 µM | > 100 µM | > 100 µM | > 100 µM | 5.81 µM | > 100 µM | 34.4 µM | > 100 µM | > 100 µM | > 100 µM | 5.19 µM | > 100 µM
